Like-named read-outs stand apart in the source and are kept apart here.
How the values were obtained:
Assay type in all cases: biochemical
CatG [1] = biological target: T1, CatG (Homo sapiens, UniProt P08311); assay: Direct inhibition of human CatG, chromogenic substrate hydrolysis assay
T1 sequence (P08311 21-244): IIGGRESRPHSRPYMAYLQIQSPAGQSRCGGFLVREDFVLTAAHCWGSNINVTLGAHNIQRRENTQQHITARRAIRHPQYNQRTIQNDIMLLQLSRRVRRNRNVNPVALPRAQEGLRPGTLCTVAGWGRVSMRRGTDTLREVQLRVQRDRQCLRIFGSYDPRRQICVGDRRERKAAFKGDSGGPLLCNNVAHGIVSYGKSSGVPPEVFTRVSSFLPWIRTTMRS
Procedure: The method further comprises inhibition of proteases. […] To each well of a 96-well microplate containing 88 μl of 20 mM tris buffer containing 100 mM NaCl, 2.5 mM CaCl2, 0.1% PEG 8000 and 0.05% tween 80 was added 3 μl of CatG (final concentration of 30 nM), and 5 μl of H2O or potential inhibitor (final concentration of 0-100 μM). Following a 5-min incubation, 3 μl of CatG substrate was added (final concentration 750 μM) and the residual CatG activity was obtained from the initial rate of increase of absorbance at 405 nm. The relative residual activity of CatG at each of the inhibitor concentrations was obtained from the ratio of CatG activity in the presence and absence of the inhibitor. Logistic Equation (1) was used to plot the dose-dependence curve to obtain the IC50 (potency) and efficacy of CatG inhibition. Here, Y is the ratio of residual CatG activity in the presence of inhibitor to that in its absence, YO and YM are the minimum and maximum values of fractional residual CatG activity, respectively, IC50 is the concentration of the inhibitor that results in 50% inhibition of CatG activity and HS is the Hill slope.
To each well of a 96-well microplate containing 88 μl of 20 mM tris buffer containing 100 mM NaCl, 2.5 mM CaCl2, 0.1% PEG 8000 and 0.05% tween 80 was added 3 μl of CatG (final concentration of 30 nM), and 5 μl of H2O or potential inhibitor (final concentration of 0-100 μM). Following a 5-min incubation, 3 μl of CatG substrate was added (final concentration 750 μM) and the residual CatG activity was obtained from the initial rate of increase of absorbance at 405 nm. The relative residual activity of CatG at each of the inhibitor concentrations was obtained from the ratio of CatG activity in the presence and absence of the inhibitor. Logistic Equation (1) was used to plot the dose-dependence curve to obtain the IC50 (potency) and efficacy of CatG inhibition. Here, Y is the ratio of residual CatG activity in the presence of inhibitor to that in its absence, YO and YM are the minimum and maximum values of fractional residual CatG activity, respectively, IC50 is the concentration of the inhibitor that results in 50% inhibition of CatG activity and HS is the Hill slope.

CatG [2] = biological target: T1, CatG; assay: Salt-dependent direct inhibition of human CatG; settings: for HS (Hill slope) / IC50 / ΔY (efficacy): pH 7.4, 37° C.; for Ki: estimated by IC50 to Ki conversion, noncompetitive model, read-out: Calculated Ki
Description: The Ki (μM) values were estimated using an IC50 to Ki conversion equation [19].
Although the sulfonated and/or phosphorylated compounds-CatG interaction is likely to be electrostatically driven, non-ionic forces may contribute to a significant extent. A significant non-ionic binding energy component increases the interaction specificity because the majority of non-ionic forces, for example, cation—π interactions, H-bonding and others depend strongly on the orientation and the distance of interacting pair of molecules. In contrast, ionic bonds are non-directional and less dependent on distance, which may increase initial interaction but offer less selectivity of recognition. […] The IC50 values were measured spectrophotometrically under various salt concentrations (100 and 200 mM), as described above. […] Subsequently, the corresponding Ki (nM) values were estimated using a formula previously reported following a classical model of noncompetitive enzyme inhibition and the results are reported below. […] Table 4 and FIG. 4.

CatG [3] = biological target: T1, CatG; assay: CatG-mediated degradation of laminin, SDS-PAGE; settings: inhibitor 10-1000 μM, CatG 0.8 μM, 60 min
Procedure: The method further comprises inhibition of CatG-mediated degradation of laminin. Inhibition of CatG cleavage of laminin by sulfonated or phosphorylated compounds was studied using SDSPAGE. Briefly, CatG (0.8 μM) was incubated with different concentrations of the inhibitor (final concentrations; 0 μM, 10 μM, […] and 1000 μM), and laminin (20 μg). Following incubation for 60 min, the samples were quenched using SDS-PAGE loading buffer containing DTT and subjected to electrophoresis on 10% SDS-PAGE pre-cast gels. The gels were visualized by silver staining. […] In fact, based on their in vitro properties, it was reasoned that these inhibitors could protect extracellular matrix components from proteolysis mediated by proteinases activated during the inflammatory process including CatG. Accordingly, the in vitro effect of compound of Formula II on the CatG-mediated proteolysis of laminin, a non-collagenous component of ECM and basement membranes was studied. […] Thus, SDS-PAGE analyses indicate that sulfonated molecule inhibition of CatG is physiologically relevant.
Inhibition of CatG cleavage of laminin by sulfonated compounds was studied using SDSPAGE. Briefly, CatG (0.8 μM) was incubated with different concentrations of the inhibitor (final concentrations; 0 μM, 10 μM, 100 μM and 1000 μM), and laminin (20 μg). […]

- IC50 (CatG [1]; Table 6, read-out: CATG IC50): 90 nM
- HS (Hill slope) (CatG [1]; Tris buffer pH 7.4, 37° C.): 1.5 ± 0.3
- ΔY (efficacy) (CatG [1]; Tris buffer pH 7.4, 37° C.): 82.5 ± 7.4%
- IC50 (CatG [1]; Tris buffer pH 7.4, 37° C., 100 mM NaCl, read-out: IC50): 90 ± 10 nM
- Decrease in potency on 2-fold increase in salt concentration (CatG [2]; 100 vs 200 mM salt): ~10 fold
- HS (Hill slope) (CatG [2]; [NaCl] 100 mM): 1.5 ± 0.3
- IC50 (CatG [2]; [NaCl] 100 mM): 90 ± 10 nM
- ΔY (efficacy) (CatG [2]; [NaCl] 100 mM): 82.5 ± 7.4%
- Ki (CatG [2]; [NaCl] 100 mM): ~75 nM
- HS (Hill slope) (CatG [2]; [NaCl] 200 mM): 1.5 ± 0.3
- IC50 (CatG [2]; [NaCl] 200 mM): 920 ± 150 nM
- ΔY (efficacy) (CatG [2]; [NaCl] 200 mM): 75.2 ± 3.4%
- Ki (CatG [2]; [NaCl] 200 mM): ~910 nM
- Protection of laminin from cleavage by CatG (CatG [3]): protected completely
Structure (SMILES): O=C(Nc1cc(C(=O)Nc2ccc(S(=O)(=O)O)cc2S(=O)(=O)O)cc(C(=O)Nc2ccc(S(=O)(=O)O)cc2S(=O)(=O)O)c1)Nc1cc(C(=O)Nc2ccc(S(=O)(=O)O)cc2S(=O)(=O)O)cc(C(=O)Nc2ccc(S(=O)(=O)O)cc2S(=O)(=O)O)c1 [Formula II, 4,4′,4″,4′-((5,5′-(carbonylbis(azanediyl))bis(isophthaloyl))tetrakis(azanediyl))tetrakis(benzene-1,3-disulfonic acid)]

From patent US20250100963A1, “SULFONATED AND PHOSPHORYLATED AROMATIC MOLECULES” (Xavier University of Louisiana, priority 2023, published 2025)
